Data from US11662349B2, “Carbohydrate sensors” (Commonwealth Scientific and Industrial Research Organisation, priority 2017, dated 2023).
Values joined by “and” are separate entries in the source; they are usually repeats but may differ in a detail not shown here. Equal values may be shown once.

Columns and labels:
[1] = biological target: LacB1 sensor, GFP^2-BgaR-RLuc8 fusion protein, SEQ ID NO: 15 (BgaR from Clostridium perfringins strain 13, SEQ ID NO: 1) (Clostridium perfringens, UniProt Q8XMB9); test: biochemical; type: binding
[2] = biological target: LacF1 sensor, His6-CFP-BgaR-YFP fusion protein, SEQ ID NO: 23 (BgaR from Clostridium perfringins strain 13, SEQ ID NO: 1) (Clostridium perfringens, UniProt Q8XMB9); type: binding

OC[C@H]1OC(O)[C@H](O)[C@@H](O)[C@H]1O (some centres unmarked) [galactose]
change in BRET^2 ratio [1]: 3% and 13%

OC[C@H]1OC(O)[C@H](O)[C@@H](O)[C@@H]1O (some centres unmarked) [glucose]
change in BRET^2 ratio [1]: 9% and 6%

OC[C@H]1O[C@@H](O[C@H]2[C@H](O)[C@@H](O)C(O)O[C@@H]2CO)[C@H](O)[C@@H](O)[C@H]1O (stereo partly drawn) [lactose, β-D-galactosyl-(1→4)-D-glucose]
RET ratio in the presence of lactose [1]: 0.800±0.003
change in BRET^2 ratio [1]: approximately 35%
drop in RET ratio [1]: 27%
EC50 ([1]; EC50 (lactose)): 12 µM and 21 µM and 11 to 14 µM and 18 to 23 µM
RET ratio in the presence of lactose [2]: 1.089±0.004
decrease in RET ratio [2]: 10%

OC[C@H]1O[C@@H](O[C@@H]2[C@@H](CO)OC(O)(CO)[C@H]2O)[C@H](O)[C@@H](O)[C@H]1O (stereo partly drawn) [lactulose, 4-O-β-D-galactosyl-D-fructose]
affinity of LacB1 for lactulose weaker than for lactose [1]: approximately 150 fold
change in BRET^2 ratio [1]: approximately 21%
difference in EC50 between lactose and lactulose [1]: 200 fold
limit of detection (LOD), lactulose [1]: 0.1 mM
limit of detection for lactulose higher than for lactose [1]: 100 fold
EC50 ([1]; EC50 (lactulose)): 2400 ± 200 µM
